The source of these data is patent publication US9879003B2, “Host targeted inhibitors of dengue virus and other viruses” (priority 2012, dated 2018).

pEC50: −log10 of the molar value. Entries after “also recorded” stand apart in the source; their conditions may differ. Where two headings read alike, the source gives them in different places.

The subject of data set [1] is DENV2-Fluc (GDV) replicon RNA. Briefly: DENV2-Fluc(GDV) mutant replicon translation, luciferase, Huh7 cells. The data set is classed as cell-based, Dengue virus. As to conditions: 6 hours post-electroporation; QL compounds 2 μM, cycloheximide 30 μg/mL.
Data set [2] relates to DENV2-Fluc(WT) replicon RNA. Put plainly: DENV2-Fluc(WT) replicon translation, luciferase, Huh7 cells. It is filed as cell-based, Dengue virus. Particulars: 6 hours post-electroporation; QL compounds 2 μM, cycloheximide 30 μg/mL. On the technique in general: Replicon systems follow genome replication, usually without infectious particles.
For data set [3], the target named is DENV RNA-dependent polymerase (Dengue virus type 2, UniProt P14340). Particulars: Wu et al. 2002; cited from earlier work.
The subject of data set [4] is DENV2 New Guinea C (DENV2-NGC). Briefly: Viral yield reduction assay, DENV2-NGC in Huh7 cells, titration by focus forming assay (FFA). It is filed as cell-based, Dengue virus.
Data set [5] deals with DENV2 virus. Put plainly: QL-XII-47 biotin test, DENV2 in Huh7 cells, titration in FFU/ml. It is filed as cell-based, Dengue virus. As to conditions: treated for 24 or 48 h.
The subject of a further data set is DENV3 THD3. Briefly: Yield reduction assay, DENV3-THD3 in Huh7 cells, FFA in Vero cells. As to conditions: Huh7 MOI 1, FFA in Vero cells.
In data set [6] the test system is DENV2 virus. Put plainly: DENV2 viral production time course in Huh7 cells (FFU/ml, RTqPCR, Western blot). It is filed as cell-based, Dengue virus. Particulars: 4 μM.
In data set [7] the test system is DENV2 virus-like particles (VLPs). Put plainly: DENV virus-like particle (VLP) expression and secretion, Huh7 cells, Western blot. As to conditions: 3 μM, supernatants 24 hours post-treatment. It is filed as cell-based, Dengue virus. As for the experimental part: The plasmid used for virus-like particles (VLP) production was provided by Stephen Harrison. Briefly, the codon optimized sequence of DENV2-FGA/02 prM-E (Wang et al., PLoS ONE (2009) 4:e8325) was introduced in the pCDNA3.1 vector. To produce VLPs, Huh7 cells were transfected with pCDNA3.1-D2.VLP using Lipofectamine 2000 (Life Technologies 11668-019) according to the manufacturer's instructions. […] The supernatants were collected at 24 hours post-treatment and precipitated for 3 hours at 4° C. by the addition of 0.075% of PEG 8000. The VLPs were pelleted by centrifugation at 10,000 g for 15 min at 4° C. The pellet was suspended in 200 μl of 1×TNE (10 mM Tris-HCl pH 7.5, 2.5 mM EDTA, 50 mM NaCl), loaded over a sucrose cushion (800 μl of 12.5% sucrose in 1×TNE), and centrifuged at 100,000 g for 2 h at 4° C. The supernatants were discarded, and the purified VLPs were suspended in 50 μl of 1×TNE. 25 μl of purified VLPs were analyzed for DENV2 E protein expression by Western blotting using 4G2 antibody. An equal amount of purified VLPs was loaded on a SDS-PAGE and submitted to Coomassie staining to control for equal loading of the VLPs-enriched supernatants. Steady state expression of DENV2 E protein in the cell lysates was analyzed by Western blotting using 4G2 antibody.

Another data set deals with Huh7 cells. Briefly: CellTiter-Glo luminescent cell viability assay (cytotoxicity). The data set is classed as cell-based. As to conditions: 20 μM, the highest concentration tested. As for the experimental part: As a positive control for cytotoxicity, some wells were supplemented with 0.1% saponin. The plates were incubated for 24 hours at 37° C., and the cell cytotoxicity was measured following the instructions of the CellTiter-Glo Luminescent cell viability assay (Promega G7570).
A general note: In ATP-based viability assays light output follows the ATP content of the culture.

Data set [8] relates to recombinant viral particles (RVP) with dengue structural proteins and West Nile virus reporter RNA. Put plainly: Single-cycle reporter viral particle (RVP) assay, Renilla luciferase, Huh7 cells. The data set is classed as cell-based. Particulars: entry and translation of subgenomic replicon RNA.
The subject of data set [9] is Japanese Encephalitis virus (JEV). It is filed as cell-based.
Data set [10] concerns herpes simplex virus 1 (HSV-1). The data set is classed as cell-based.
The test system of a further data set is DENV2-NGC genomic RNA. Put plainly: Time course of intracellular DENV genomic RNA by qRT-PCR and in situ hybridization. As to conditions: 2 μM, MOI 1, normalized to GAPDH.
The test system of data set [11] is Rift Valley fever virus (RVFV). The data set is classed as cell-based.
A further data set deals with Junin virus. The data set is classed as cell-based.
Another data set concerns Lassa fever virus (LASV). It is filed as cell-based.
For a further data set, the system named is Kunjin virus. Briefly: Kunjin virus yield reduction in Huh7 cells, plaque assay in BHK21 cells. As to conditions: 2 μM. It is filed as cell-based.
A further data set relates to Marburg virus (MARV). The data set is classed as cell-based.
The subject of data set [12] is human cytomegalovirus (HCMV). The data set is classed as cell-based.
A further data set has as its system poliovirus Type 1 (PV1). The data set is classed as cell-based.
A further data set concerns Junin virus (JUNV). It is filed as cell-based.
The test system of another data set is vaccinia virus. It is filed as cell-based.
A further data set relates to poliovirus. It is filed as cell-based.
In the next data set the test system is VSV. The data set is classed as cell-based, vesicular stomatitis virus.
For the next data set, the system named is DENV1 WP74. Put plainly: Yield reduction assay, DENV1-WP74 in Huh7 cells, FFA in Vero cells. As to conditions: Huh7 MOI 1, FFA in Vero cells.
Data set [13] has as its system Ebola glycoprotein (EBOV). The data set is classed as cell-based, Ebola virus.
The test system of the next data set is DENV2 replicon. It is filed as cell-based, Dengue virus. Particulars: 2 μM added at 24 hours, read at 72 hours post-electroporation.
The test system of data set [14] is vesicular stomatitis virus (VSV). It is filed as cell-based.
The subject of a further data set is influenza virus. It is filed as cell-based.
For data set [15], the system named is VSV pseudotyped with rabies virus glycoprotein (RABV). It is filed as cell-based, vesicular stomatitis virus.
For a further data set, the system named is DENV4 TVP360. Briefly: Yield reduction assay, DENV4-TVP360 in Huh7 cells, FFA in Vero cells. Particulars: Huh7 MOI 1, FFA in Vero cells.
Data set [16] concerns encephalomyocarditis virus (EMCV) IRES. The data set is classed as cell-based.
Data set [17] deals with VSV pseudotyped with Ebola glycoprotein (EboV). It is filed as cell-based, vesicular stomatitis virus.
Data set [18] has as its system Venezuelan equine encephalitis virus (VEEV). It is filed as cell-based.

As for `C[C@@H]1C[C@@H]([C@H](O)CC2CC(=O)NC(=O)C2)C(=O)[C@@H](C)C1` [CHX, cycloheximide, reference compound], the “luciferase activity (translation of input RNA)” value (shortened to “luciferase activity”) in [1] and in data set [2] was “Reduced luciferase activity” each time.
As a reminder, the pEC50 is −log10 of the EC50, conventionally taken in molar units. For `C[C@@]1(O)[C@H](O)[C@@H](CO)O[C@H]1n1ccc2c(N)ncnc21` [Compound 7-DMA], in [3], the pEC50 was 4.82.
For `C=CC(=O)N1CCC[C@@H](n2nc(-c3ccc(Oc4ccccc4)cc3)c3c(N)ncnc32)C1` [PCI-32765, reference compound], in data set [4] (added 1 hour post-infection, MOI 1, FFA at 24 h post-infection), the “effect on DENV yield” value was “not inhibited; also recorded: no effect”.
On to `CN(C/C=C/C(=O)N1CCc2ccc(-n3c(=O)ccc4cnc5ccc(-c6cnn(C)c6)cc5c43)cc21)CCNC(=O)NCCOCCOCCOCCNC(=O)CCCC1SCC2NC(=O)NC21` (stereo not drawn) [QL-XII-47-biotin], for which, in the data set with DENV2 virus [5], the “inhibitory activity against dengue virus” value was “significantly reduced inhibitory activity”.
By EC90 is commonly meant the concentration at which the effect reaches the 90% level. The low end stands for greater potency, the high end for weaker potency. Turning to `C=CC(=O)N1CCc2ccc(-n3c(=O)ccc4cnc5ccc(-c6cnn(C)c6)cc5c43)cc21` [QL-XII-47], the activity against strain result was “potent activity” in the data set with DENV3 THD3; “potent activity” in data set [4] (DENV2 NGC, Huh7 MOI 1, FFA in Vero cells); “potent activity” with DENV1 WP74; “potent activity” in the data set with DENV4 TVP360. Also, in the data set with DENV2 virus [6], the “expression of DENV proteins NS3 and core (Western blot)” value is listed as “reduced steady-state expression”. For the same compound, in the data set with DENV2 virus [6] (after about 12 hours of infection), the “DENV2 viral production (FFU/ml, viral count)” value is “inhibited”. The “yield of virus-like particles (VLPs)” value in data set [7] is listed as “did not inhibit”. In addition, the cytotoxicity entry in the data set with Huh7 cells is recorded as “no cytotoxicity; also recorded: not observed”; in the data set with BHK21 it was “not observed”; in the data set on Hela, “single-digit micromolar cytotoxicity”; with Vero, “not observed”; in the data set with 293, “single-digit micromolar cytotoxicity”; with 3T3, “not observed”. In addition, the “inhibition in single-cycle reporter virus assay” value in data set [8] was “potent inhibitory activity”. The “inhibition of cytopathic effects” value (in data set [9]; in the data set with Junin virus) was “modest inhibitor” throughout. For the same compound, the “inhibition of infection and plaque formation” value in [10] is reported as “inhibits”. Also, in [10], the plaques detected result is given as “no plaques were detected”. In addition, the “DENV genomic RNA copy number over time” value with DENV2-NGC genomic RNA is on record as “relatively unchanged copy number”. Moreover, the inhibitory activity result (in [11]; in the data set with Lassa fever virus (LASV); in the data set with Marburg virus (MARV); in the data set on Junin virus (JUNV); in [13]; in data set [18]) was “inhibitory activity” in each case. For the same compound, the EC90 in [4] (Dengue virus, DENV2, Huh-7) was found to be 0.4 µM. Besides, the “decrease in DENV2 New Guinea C (DENV2-NGC) yield / drop in viral titer” value in data set [4] (at single-digit micromolar concentrations) was more than 3 log10 unit. For the same compound, the “inhibition of DENV after pretreatment of cells” value in [4] (cells pretreated for 6 hours and washed prior to infection) was “potent inhibition”. Further, in data set [4] (time-of-addition experiment), the “time of addition giving maximal anti-DENV effect” value was 0-3 hours post-infection. In addition, the “luciferase activity” value in [1] and in data set [2] was “Reduced luciferase activity” throughout. Moreover, the “reduction in Kunjin virus yield” value with Kunjin virus is listed as “greater than 10 fold”. The “inhibition of reporter HCMV infection” value in data set [12] was “inhibits”. Besides, in the data set with poliovirus Type 1 (PV1), the “inhibition of PV1” value was “inhibited”. In addition, the activity against virus result with vaccinia virus and in the data set on influenza virus was “no activity” in each case. Further, in the data set with poliovirus, the “inhibition of infection and viral gene expression” value was “inhibits”. Further, the inhibition of infection result (in the data set on VSV; in data set [15]; in data set [17]) was “inhibits infection” throughout. Further, in the data set on DENV2 replicon, the “activity on electroporated subgenomic reporter replicon” value is recorded as “does not have activity”. Also, in data set [14], the “inhibition of VSV” value is “inhibited”. Also, the “EMCV IRES-dependent translation” value in data set [16] is “reduces translation; also recorded: inhibited”.
As to `C=CC(=O)Nc1cc(-n2c(=O)ccc3cnc4ccc(-c5cnn(C)c5)cc4c32)ccc1C` [QL-XII-56], the inhibitory activity entry (in data set [11]; in the data set on Lassa fever virus (LASV); with Marburg virus (MARV); in the data set with Junin virus (JUNV); in data set [13]; in data set [18]) was “inhibitory activity” throughout. For the same compound, the “luciferase activity” value in data set [1] and in data set [2] was “Reduced luciferase activity” throughout. Further, the “inhibition of PV1” value in the data set on poliovirus Type 1 (PV1) is given as “inhibited”. For the same compound, the “inhibition of VSV” value in [14] was “inhibited”. In addition, the “EMCV IRES-dependent translation” value in data set [16] is “inhibited”.
On to `Nc1nc2c(ncn2COCCO)c(=O)[nH]1` [acyclovir, reference compound], for which the plaques detected entry in data set [10] (8 μM) was “no plaques were detected”.
